This assay deals with STAT1 (phosphorylated at Tyr701) in NCI-H1373 cells. Description: Phospho-STAT1 (Tyr701) LANCE Ultra TR-FRET detection assay in NCI-H1373 cells. The settings on record: Homo sapiens, NCI-H1373, 48 h, 48 hours incubation, induction of pSTAT1, normalized to 10 uM positive control and DMSO, 4-parameter fit, read-out: NH1373 pSTAT1 EC50. Type of assay: cell-based. Here is the method:
Phospho-STAT1 (Tyr701 LANCE Ultra TR-FRET Detection Assay
LANCE Ultra phospho-STAT1 (Tyr701) kits are designed for the detection of phosphorylated STAT1 in cell lysates using a simple, homogeneous LANCE Ultra sandwich assay (Cat. #TRF4028M). This assay is intended for assessing compound induction of endogenous levels of cellular STAT1 (phosphorylated at Tyr701) in NCI-H1373 cells. The NCI-H1373 cells are cultured in RPMI 1640 media containing 10% heat inactivated FBS, GlutaMAX, 1% Penicillin-Streptomycin. An Echo acoustic liquid handler is used to transfer 60 nanoliters of compound dilutions using the Echo Qualified, 384-well polypropylene microplate clear flat bottom source plates into a Greiner (#781080) cell culture microplate. NCI-H1373 cells are seeded into these compound-spotted culture plates at 30,000 cells/well in a 60 uL volume in growth media. The plates are incubated in a 5% CO2 humidified incubator at 37° C. for 48 hours. […] Briefly, […] of supplemented lysis buffer is added to each well and allowed to shake for 1 hour at 400 rpm. Next, 5 ul of remixed antibody solutions (vol/vol) prepared in detection buffer are added to each well and allowed to incubate at room temperature overnight. After spinning the plate down at 300 rpm for 1 min, the plate is read on an EnVision plate reader set up for Eu^3+ Cryptate and fluorescence emission is measured at two different wavelengths (665 nm and 620 nm). The HTRF ratio is then calculated ([…]) for each well to determine the amount of pSTAT1 in the cell lysate, and the data is then normalized to 10 uM (S)-5-((1-(3-oxo-3-(4-(5-(trifluoromethyl)pyrimidin-2-yl)piperazin-1-yl)propoxy)propan-2-yl)amino)-4-(trifluoromethyl)pyridazin-3(2H)-one positive and DMSO negative controls. The values were then plotted as a function of compound concentration and a 4-parameter fit was applied to derive the EC50 values.
For orientation: Time-resolved FRET reads energy transfer from a long-lived donor to a nearby acceptor.
As to `C[C@@H](C[C@@H](F)Cn1ccc2cc(-c3nccs3)c(F)cc2c1=O)Nc1cn[nH]c(=O)c1C(F)(F)F` [Example 103], the EC50 was determined as 138 nM.
Consider `C[C@@H](C[C@H](F)Cn1cc(F)c2cc(-c3ncc(C(C)(C)O)cn3)c(F)cc2c1=O)Oc1cn[nH]c(=O)c1C(F)(F)F` [Example 66], for which the EC50 was 91.6 nM.
For the compound `C[C@@H](C[C@@H](O)Cn1ccc2cc(-c3ncc(C(F)(F)F)cn3)c(F)cc2c1=O)Oc1cn[nH]c(=O)c1C(F)(F)F` (single isomer, unassigned) [Example 17], the EC50 stood at 23.3 nM.
`C[C@@H](C[C@@H](F)Cn1cnc2cc(-c3ncc(C(F)F)c(N)n3)c(F)cc2c1=O)Nc1cn[nH]c(=O)c1C(F)(F)F` [Example 69]: the EC50 is 19 nM.
As for `C[C@@H](C[C@@H](F)Cn1ccc2cc(-c3ncc(C(C)(C)F)cn3)c(F)cc2c1=O)Nc1cn[nH]c(=O)c1C(F)(F)F` [Example 96], the EC50 worked out at 1.61 nM.
For `C[C@@H](C[C@@H](F)Cn1ccc2cc(-c3ncc(C(C)(F)F)cn3)c(F)c(F)c2c1=O)Oc1cn[nH]c(=O)c1C(F)(F)F` [Example 46] the value was 0.667 nM; for `C[C@@H](C[C@@H](F)Cn1cc(F)c2cc(-c3ncc(C(F)F)cn3)c(F)cc2c1=O)Oc1cn[nH]c(=O)c1C(F)(F)F` [Example 52], 67.9 nM; for `Nc1nc(-c2cc3ccn(CC(F)CC(COC(F)F)Nc4cn[nH]c(=O)c4C(F)(F)F)c(=O)c3cc2F)ncc1C(F)F` (centres unmarked) [Example 127], 6.55 nM.
For `C[C@@H](C[C@@H](F)Cn1ccc2cc(-c3ncc([C@@H](O)C(F)F)cn3)c(F)cc2c1=O)Nc1cn[nH]c(=O)c1C(F)(F)F` [Example 80] the value was 7.89 nM.
For `COc1cnc(-c2cc3c(F)cn(C[C@H](F)C[C@H](C)Nc4cn[nH]c(=O)c4C(F)(F)F)c(=O)c3cc2F)nc1` [Example 25] the value was 1.01 nM; for `COc1cnc(-c2cc3ccn(C[C@H](F)C[C@H](C)Oc4cn[nH]c(=O)c4C(F)(F)F)c(=O)c3cc2F)nc1` [Example 45], 1.01 nM.
With `C[C@@H](CC(F)Cn1cnc2cc(-c3ncc(C(C)(C)O)cn3)c(F)cc2c1=O)Oc1cn[nH]c(=O)c1C(F)(F)F` (some centres unmarked) [Example 38], the EC50 amounted to 42.4 nM.
For `COc1cnc(-c2cc3ccn(C[C@@H](F)C[C@H](C)Oc4cn[nH]c(=O)c4C(F)(F)F)c(=O)c3cc2F)nc1N` [Example 59] the value was 1.21 nM; for `C[C@@H](CC(F)Cn1ccc2cc(-c3ncc(C(F)(F)F)cn3)c(F)cc2c1=O)Nc1cn[nH]c(=O)c1C(F)(F)F` (stereo partly drawn) [Example 1, 7-fluoro-2-[(4S)-2-fluoro-4-[[6-oxo-5-(trifluoromethyl)-1H-pyridazin-4-yl]amino]pentyl]-6-[5-(trifluoromethyl)pyrimidin-2-yl]isoquinolin-1-one], 1.88 nM; for `C[C@@H](C[C@H](F)Cn1ccc2cc(-c3ncc(C(C)(C)O)cn3)c(F)cc2c1=O)Oc1cn[nH]c(=O)c1C(F)(F)F` (single isomer, unassigned) [Example 61], 158 nM.
For `C[C@@H](C[C@H](O)Cn1ccc2cc(-c3ncc(C(F)F)cn3)c(F)cc2c1=O)Oc1cn[nH]c(=O)c1C(F)(F)F` (single isomer, unassigned) [Example 20] the value was 33 nM; for `O=c1[nH]ncc(N[C@@H](CO)C[C@@H](F)Cn2ccc3cc(-c4ncc(C(F)F)cn4)c(F)cc3c2=O)c1C(F)(F)F` [Example 125], 41.2 nM; for `C[C@@H](C[C@H](F)Cn1ccc2cc(-c3ncc(C(F)(F)F)cn3)c(F)cc2c1=O)Oc1cn[nH]c(=O)c1C(F)(F)F` [Example 13], 1.32 nM.
For `O=c1[nH]ncc(O[C@H](CCCn2ccc3cc(-c4ncc(C(F)(F)F)cn4)c(F)cc3c2=O)COC(F)F)c1C(F)(F)F` (single isomer, unassigned) [Example 119] the value was 16.1 nM; for `C[C@@H](C[C@@H](F)Cn1ccc2cc(-c3ncco3)c(F)cc2c1=O)Nc1cn[nH]c(=O)c1C(F)(F)F` [Example 102], 170 nM.
Regarding `CC(F)(F)c1cnc(-c2cc3ccn(CC(F)CC(COC(F)F)Nc4cn[nH]c(=O)c4C(F)(F)F)c(=O)c3cc2F)nc1` (centres unmarked) [Example 131], the EC50 was found to be 5.34 nM.
Then `C[C@@H](C[C@H](F)Cn1ccc2cc(-c3ncc(S(C)(=O)=O)cn3)c(F)cc2c1=O)Oc1cn[nH]c(=O)c1C(F)(F)F` [Example 60], with 10.2 nM; and `C[C@@H](C[C@@H](F)Cn1cnc2cc(-c3ncc(C(F)(F)F)cn3)c(F)cc2c1=O)Nc1cn[nH]c(=O)c1C(F)(F)F` [Example 71], with 2.17 nM.
For `C[C@@H](C[C@@H](F)Cn1ccc2cc(-c3cnccn3)c(F)cc2c1=O)Nc1cn[nH]c(=O)c1C(F)(F)F` [Example 104] the value was 36.4 nM; for `C[C@@H](C[C@@H](F)Cn1ccc2cc(-c3ncc(C(C)(C)O)cn3)c(F)cc2c1=O)Oc1cn[nH]c(=O)c1C(F)(F)F` (single isomer, unassigned) [Example 51], 3.28 nM.
`C[C@@H](C[C@@H](F)Cn1cc(F)c2cc(-c3ncc(C(F)F)c(N)n3)c(F)cc2c1=O)Nc1cn[nH]c(=O)c1C(F)(F)F` [Example 24, 6-(4-amino-5-(difluoromethyl)pyrimidin-2-yl)-4,7-difluoro-2-((2R,4S)-2-fluoro-4-((6-oxo-5-(trifluoromethyl)-1,6-dihydropyridazin-4-yl)amino)pentyl)isoquinolin-1(2H)-one]: the EC50 amounted to 2.39 nM.
Then `C[C@@H](C[C@@H](F)Cn1cnc2cc(-c3ncc(C(C)(F)F)cn3)c(F)cc2c1=O)Nc1cn[nH]c(=O)c1C(F)(F)F` [Example 107], with 2.52 nM; and `C[C@@H](C[C@@H](F)Cn1ccc2cc(-c3ncc(C(F)(F)F)cc3F)c(F)cc2c1=O)Nc1cn[nH]c(=O)c1C(F)(F)F` [Example 75], with 4.51 nM.
For `C[C@@H](C[C@@H](F)Cn1ccc2cc(-c3ncc(C(F)(F)CO)cn3)c(F)cc2c1=O)Nc1cn[nH]c(=O)c1C(F)(F)F` [Example 85], the EC50 amounted to 4.39 nM.
As to `O=c1[nH]ncc(NC(COC(F)F)C[C@@H](F)Cn2ccc3cc(-c4ncc(C(F)(F)F)cn4)c(F)cc3c2=O)c1C(F)(F)F` (stereo partly drawn) [Example 126, 2-[(2R)-5-(difluoromethoxy)-2-fluoro-4-[[6-oxo-5-(trifluoromethyl)-1H-pyridazin-4-yl]amino]pentyl]-7-fluoro-6-[5-(trifluoromethyl)pyrimidin-2-yl]isoquinolin-1-one], the EC50 came out at 3.3 nM.
Then `CC(O)c1cnc(-c2cc3ccn(C[C@H](F)C[C@H](C)Nc4cn[nH]c(=O)c4C(F)(F)F)c(=O)c3cc2F)nc1` (some centres unmarked) [Example 111], with 4.64 nM; and `CC(C)(O)c1cnc(-c2cc3ccn(CCC[C@@H](COC(F)F)Oc4cn[nH]c(=O)c4C(F)(F)F)c(=O)c3cc2F)nc1` (single isomer, unassigned) [Example 34], with 10000 nM.
As for `C[C@@H](C[C@@H](F)CN1CCc2cc(-c3ncc(C(F)(F)F)cn3)c(F)cc2C1=O)Nc1cn[nH]c(=O)c1C(F)(F)F` [Example 132, 7-fluoro-2-[(2R,4S)-2-fluoro-4-[[6-oxo-5-(trifluoromethyl)-1H-pyridazin-4-yl]amino]pentyl]-6-[5-(trifluoromethyl)pyrimidin-2-yl]-3,4-dihydroisoquinolin-1-one], the concentration giving a half-maximal response (EC50) came to 2.7 nM.
Then `C[C@@H](C[C@@H](F)Cn1cc(F)c2cc(-c3ncc(C(F)(F)F)cn3)c(F)cc2c1=O)Nc1cn[nH]c(=O)c1C(F)(F)F` [Example 30], with 1.54 nM.
Then `C[C@@H](C[C@H](F)Cn1cnc2cc(-c3ncc(C(F)(F)F)cn3)c(F)cc2c1=O)Oc1cn[nH]c(=O)c1C(F)(F)F` [Example 58], with 35.3 nM.
For `C[C@@H](C[C@@H](F)Cn1ccc2cc(-c3ncc(C(F)(F)F)cn3)c(F)cc2c1=O)Oc1cn[nH]c(=O)c1C(F)(F)F` [Example 12] the value was 45.1 nM.
`C[C@@H](C[C@@H](F)Cn1ccc2cc(-c3ncc([C@@](C)(O)C(F)F)cn3)c(F)cc2c1=O)Nc1cn[nH]c(=O)c1C(F)(F)F` [Example 86]: the EC50 worked out at 10.1 nM.
For `C[C@@H](C[C@@H](F)Cn1ccc2cc(-c3ncc(C(F)F)cn3)c(F)cc2c1=O)Oc1cn[nH]c(=O)c1C(F)(F)F` [Example 48] the value was 1.05 nM; for `COc1cnc(-c2cc3c(F)cn(C[C@H](F)C[C@H](C)Oc4cn[nH]c(=O)c4C(F)(F)F)c(=O)c3cc2F)nc1` [Example 53], 202 nM.
Turning to `C[C@@H](C[C@@H](F)Cn1ccc2cc(-c3ncc(OCC#N)cn3)c(F)cc2c1=O)Nc1cn[nH]c(=O)c1C(F)(F)F` [Example 78], the EC50 worked out at 192 nM.
For `COc1cnc(-c2cc3ccn(C[C@@H](F)C[C@H](C)Nc4cn[nH]c(=O)c4C(F)(F)F)c(=O)c3cc2F)nc1` (single isomer, unassigned) [Example 7] the value was 152 nM.

In general, EC50 refers to the midpoint of the concentration-response curve.

(Values after patent US20250066328A1, “PARP7 INHIBITORS” (Gilead Sciences, Inc., priority 2023, published 2025).)
